Laboratory results published in patent US20240270762A1, “PENICILLIN-BINDING PROTEIN INHIBITORS” (priority 2021, published 2024).
Converted amounts (≈) assume the structure as drawn.

What was measured:
A. baumannii ATCC 19606 = assay: microbe, parasite or virus in culture; type: cell-based; conditions: Acinetobacter baumannii, ATCC19606, read-out: MIC, A. baumannii ATCC 19606
P. aeruginosa ATCC 35151 = assay: microbe, parasite or virus in culture; type: cell-based; conditions: Pseudomonas aeruginosa, ATCC35151, read-out: Minimum inhibitory concentration, P. aeruginosa ATCC 35151
[1] = system: P. aeruginosa (ΔmexAB-oprM); assay: Broth microdilution MIC in iron-depleted CAMHB (IDM); type: cell-based; conditions: Pseudomonas aeruginosa; iron-depleted CAMHB (IDM); […]; read-out: Minimum inhibitory concentration, P. aeruginosa ΔmexAB-oprM
A. baumannii 1258916 = assay: microbe, parasite or virus in culture; type: cell-based, Acinetobacter baumannii; conditions: Acinetobacter baumannii, 1258916, read-out: MIC, A. baumannii 1258916
A. baumannii CDC-0036 = assay: microbe, parasite or virus in culture; type: cell-based; conditions: Acinetobacter baumannii, CDC0036, read-out: MIC, A. baumannii CDC-0036
A. baumannii CDC-0045 = assay: microbe, parasite or virus in culture; type: cell-based; conditions: Acinetobacter baumannii, CDC0045, read-out: MIC, A. baumannii CDC-0045
N. gonorrhoeae FA1090 = assay: Liquid broth MIC in Fastidious broth; conditions: Neisseria gonorrhoeae, FA1090, read-out: Minimum Inhibitory Concentration, FA 1090
N. gonorrhoeae MS11 = assay: Liquid broth MIC in Fastidious broth; conditions: Neisseria gonorrhoeae, MS11, read-out: Minimum Inhibitory Concentration, MS11
N. gonorrhoeae WHO L = assay: Liquid broth MIC in Fastidious broth; conditions: Neisseria gonorrhoeae, read-out: Minimum Inhibitory Concentration, WHO L
N. gonorrhoeae WHO M = assay: Liquid broth MIC in Fastidious broth; conditions: Neisseria gonorrhoeae, read-out: Minimum Inhibitory Concentration, WHO M
N. gonorrhoeae WHO K = assay: Liquid broth MIC in Fastidious broth; conditions: Neisseria gonorrhoeae, read-out: Minimum Inhibitory Concentration, WHO K
N. gonorrhoeae WHO Z = assay: Liquid broth MIC in Fastidious broth; conditions: Neisseria gonorrhoeae, read-out: Minimum Inhibitory Concentration, WHO Z
N. gonorrhoeae WHO Q = assay: Liquid broth MIC in Fastidious broth; conditions: Neisseria gonorrhoeae, read-out: Minimum Inhibitory Concentration, WHO Q

Structure (SMILES) | MIC (A. baumannii ATCC 19606) [µg/mL] | MIC (P. aeruginosa ATCC 35151) [µg/mL] | MIC [1] [µg/mL] | MIC (A. baumannii 1258916) [µg/mL] | MIC (A. baumannii CDC-0036) [µg/mL] | MIC (A. baumannii CDC-0045) [µg/mL] | MIC (N. gonorrhoeae FA1090) [µg/mL] | MIC (N. gonorrhoeae MS11) [µg/mL] | MIC (N. gonorrhoeae WHO L) [µg/mL] | MIC (N. gonorrhoeae WHO M) [µg/mL] | MIC (N. gonorrhoeae WHO K) [µg/mL] | MIC (N. gonorrhoeae WHO Z) [µg/mL] | MIC (N. gonorrhoeae WHO Q) [µg/mL]
O=C(NCCCS(=O)(=O)N1CCN(C(=O)NC(C(=O)N[C@H]2Cc3ccc(F)c(C(=O)O)c3OB2O)c2cc(F)c(O)c(O)c2Cl)C1=O)c1ccncc1 (stereo partly drawn) [Example 272, (3R)-3-(2-(2-chloro-5-fluoro-3,4-dihydroxyphenyl)-2-(3-((3-(isonicotinamido)propyl)sulfonyl)-2-oxoimidazolidine-1-carboxamido)acetamido)-7-fluoro-2-hydroxy-3,4-dihydro-2H-benzo[e][1,2]oxaborinine-8-carboxylic acid] | < 1 | < 1 | < 1 | 2 to 4 (≈ 2.56 to 5.12 µM) | 2 to 4 (≈ 2.56 to 5.12 µM) | < 1 | 4 to 8 (≈ 5.12 to 10.2 µM) | 16 to 32 (≈ 20.5 to 41 µM) | > 64 | 16 to 32 (≈ 20.5 to 41 µM) | > 64 | 4 to 8 (≈ 5.12 to 10.2 µM) | 16 to 32 (≈ 20.5 to 41 µM)
O=C(NCCCS(=O)(=O)N1CCN(C(=O)NC(C(=O)N[C@H]2Cc3ccc(F)c(C(=O)O)c3OB2O)c2cc(F)c(O)c(O)c2Cl)C1=O)c1cccnc1 (stereo partly drawn) [Example 273, (3R)-3-(2-(2-chloro-5-fluoro-3,4-dihydroxyphenyl)-2-(3-((3-(nicotinamido)propyl)sulfonyl)-2-oxoimidazolidine-1-carboxamido)acetamido)-7-fluoro-2-hydroxy-3,4-dihydro-2H-benzo[e][1,2]oxaborinine-8-carboxylic acid] | < 1 | < 1 | < 1 | < 1 | 2 to 4 (≈ 2.56 to 5.12 µM) | < 1 | 4 to 8 (≈ 5.12 to 10.2 µM) | 16 to 32 (≈ 20.5 to 41 µM) | > 64 | 16 to 32 (≈ 20.5 to 41 µM) | > 64 | 4 to 8 (≈ 5.12 to 10.2 µM) | 16 to 32 (≈ 20.5 to 41 µM)
O=C(NCCCS(=O)(=O)N1CCN(C(=O)NC(C(=O)N[C@H]2Cc3ccc(F)c(C(=O)O)c3OB2O)c2cc(F)c(O)c(O)c2Cl)C1=O)c1nccs1 (stereo partly drawn) [Example 274, (3R)-3-(2-(2-chloro-5-fluoro-3,4-dihydroxyphenyl)-2-(2-oxo-3-((3-(thiazole-2-carboxamido)propyl)sulfonyl)imidazolidine-1-carboxamido)acetamido)-7-fluoro-2-hydroxy-3,4-dihydro-2H-benzo[e][1,2]oxaborinine-8-carboxylic acid] | < 1 | < 1 | < 1 | < 1 | 2 to 4 (≈ 2.54 to 5.08 µM) | < 1 | 4 to 8 (≈ 5.08 to 10.2 µM) | 16 to 32 (≈ 20.3 to 40.7 µM) | > 64 | 16 to 32 (≈ 20.3 to 40.7 µM) | > 64 | 16 to 32 (≈ 20.3 to 40.7 µM) | 16 to 32 (≈ 20.3 to 40.7 µM)
O=C(O)c1c(F)ccc2c1OB(O)[C@@H](NC(=O)C(NC(=O)N1CCN(S(=O)(=O)CCCNC(=O)[C@@H]3CCCN3)C1=O)c1cc(F)c(O)c(O)c1Cl)C2 (stereo partly drawn) [Example 275, (3R)-3-(2-(2-chloro-5-fluoro-3,4-dihydroxyphenyl)-2-(2-oxo-3-((3-((S)-pyrrolidine-2-carboxamido)propyl)sulfonyl)imidazolidine-1-carboxamido)acetamido)-7-fluoro-2-hydroxy-3,4-dihydro-2H-benzo[e][1,2]oxaborinine-8-carboxylic acid] | < 1 | < 1 | < 1 | < 1 | 2 to 4 (≈ 2.59 to 5.18 µM) | < 1 | 4 to 8 (≈ 5.18 to 10.4 µM) | 16 to 32 (≈ 20.7 to 41.4 µM) | > 64 | 16 to 32 (≈ 20.7 to 41.4 µM) | > 64 | 16 to 32 (≈ 20.7 to 41.4 µM) | 16 to 32 (≈ 20.7 to 41.4 µM)
O=C(NCCCS(=O)(=O)N1CCN(C(=O)NC(C(=O)N[C@H]2Cc3ccc(F)c(C(=O)O)c3OB2O)c2cc(F)c(O)c(O)c2Cl)C1=O)Nc1ccc(O)cc1 (stereo partly drawn) [Example 276, (3R)-3-(2-(2-chloro-5-fluoro-3,4-dihydroxyphenyl)-2-(3-((3-(3-(4-hydroxyphenyl)ureido)propyl)sulfonyl)-2-oxoimidazolidine-1-carboxamido)acetamido)-7-fluoro-2-hydroxy-3,4-dihydro-2H-benzo[e][1,2]oxaborinine-8-carboxylic acid] | < 1 | < 1 | < 1 | < 1 | 2 to 4 (≈ 2.47 to 4.93 µM) | 2 to 4 (≈ 2.47 to 4.93 µM) | 1 to 2 (≈ 1.23 to 2.47 µM) | 16 to 32 (≈ 19.7 to 39.5 µM) | > 64 | 4 to 8 (≈ 4.93 to 9.87 µM) | > 64 | 4 to 8 (≈ 4.93 to 9.87 µM) | 16 to 32 (≈ 19.7 to 39.5 µM)
